Data taken from the supplement of paper PMC10307832.

How the values were obtained:
Experiment in all cases: relative viability (nuclei count vs DMSO), 5 days (fraction); higher = more cells survive
Palbociclib + Foretinib = compound: CC(=O)c1c(C)c2cnc(Nc3ccc(N4CCNCC4)cn3)nc2n(C2CCCC2)c1=O [Palbociclib] + COc1cc2c(Oc3ccc(NC(=O)C4(C(=O)Nc5ccc(F)cc5)CC4)cc3F)ccnc2cc1OCCCN1CCOCC1 [Foretinib] (partner 0.25 µM)
Method in brief: (§1)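 Relative viability equals treated-well nuclei counts divided by vehicle-well nuclei counts. Counts came from 4× images of lung cancer cell lines grown in 1536-well plates for 5 days after pin-tool dosing on the day after seeding. Dosing used one drug alone or a fixed anchor-drug dose plus five library-drug doses (not always all listed) in √10 steps, and values are medians of duplicate plates.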

Palbociclib + Tozasertib = compound: CC(=O)c1c(C)c2cnc(Nc3ccc(N4CCNCC4)cn3)nc2n(C2CCCC2)c1=O [Palbociclib] + Cc1cc(Nc2cc(N3CCN(C)CC3)nc(Sc3ccc(NC(=O)C4CC4)cc3)n2)n[nH]1 [Tozasertib] (partner 0.1 µM)
Method in brief: as §1

Palbociclib + Dasatinib = compound: CC(=O)c1c(C)c2cnc(Nc3ccc(N4CCNCC4)cn3)nc2n(C2CCCC2)c1=O [Palbociclib] + Cc1nc(Nc2ncc(C(=O)Nc3c(C)cccc3Cl)s2)cc(N2CCN(CCO)CC2)n1 [Dasatinib] (partner 0.075 µM)
Method in brief: as §1

Cell Line	relative viability (Palbociclib + Foretinib; first compound 0.01 µM)	relative viability (Palbociclib + Foretinib; first compound 0.03162 µM)	relative viability (Palbociclib + Foretinib; first compound 0.1 µM)	relative viability (Palbociclib + Foretinib; first compound 0.3162 µM)	relative viability (Palbociclib + Foretinib; first compound 1 µM)	relative viability (Palbociclib + Tozasertib; first compound 0.01 µM)	relative viability (Palbociclib + Tozasertib; first compound 0.03162 µM)	relative viability (Palbociclib + Tozasertib; first compound 0.1 µM)	relative viability (Palbociclib + Tozasertib; first compound 0.3162 µM)	relative viability (Palbociclib + Tozasertib; first compound 1 µM)	relative viability (Palbociclib + Dasatinib; first compound 0.01 µM)	relative viability (Palbociclib + Dasatinib; first compound 0.03162 µM)	relative viability (Palbociclib + Dasatinib; first compound 0.1 µM)	relative viability (Palbociclib + Dasatinib; first compound 0.3162 µM)	relative viability (Palbociclib + Dasatinib; first compound 1 µM)
201T	0.932	0.841	0.72	0.77	0.419	0.984	0.906	0.914	0.797	0.614	0.54	0.494	0.579	0.388	0.324
A549	0.925	0.831	0.754	0.635	0.43										
A-427	0.944	1.01	0.993	0.729	0.607	0.203	0.205	0.224	0.227	0.209	0.672	0.607	0.561	0.523	0.485
ABC-1	0.963	0.808	0.852	0.763	0.709	0.161	0.184	0.18	0.215	0.217	0.546	0.537	0.493	0.457	0.377
BEN	0.729	0.422	0.607	0.556	0.376	0.563	0.429	0.541	0.608	0.697	0.39	0.324	0.229	0.235	0.208
CAL-12T	1.01	0.898	0.901	0.791	0.674	0.294	0.307	0.305	0.259	0.271	0.486	0.383	0.248	0.273	0.22
COR-L23	0.95	0.745	0.911	0.729	0.58	0.197	0.146	0.16	0.157	0.124	0.575	0.431	0.241	0.334	0.2
COR-L 105	0.841	0.826	0.992	0.595	0.449	0.379	0.335	0.341	0.308	0.318	0.339	0.312	0.274	0.326	0.253
Calu-6	0.879	0.808	0.714	0.672	0.463										
ChaGo-K-1	0.928	0.797	1.1	0.959	0.977	0.218	0.21	0.25	0.225	0.223	0.545	0.539	0.615	0.594	0.593
EBC-1	0.113	0.0957	0.0957	0.0852	0.0884										
EKVX	0.907	0.412	0.748	0.757	0.463	0.366	0.396	0.341	0.398	0.311	0.467	0.444	0.502	0.455	0.372
EMC-BAC-2	1	0.931	0.804	0.821	0.61	0.24	0.298	0.277	0.285	0.29	0.3	0.258	0.302	0.32	0.256
EPLC-272H	0.794		0.572	0.689	0.435	0.326		0.331	0.339	0.42	0.328		0.345	0.249	0.198
H3255	0.879	0.898	0.693	0.641	0.57	0.702	0.613	0.522	0.591	0.309	0.347	0.386	0.338	0.322	0.277
HARA	0.828		0.763	0.534	0.332	0.108		0.0705	0.102	0.0769	0.27		0.24	0.193	0.149
HCC-15	1		0.902	0.892	0.716	0.454		0.38	0.372	0.343	0.622		0.516	0.598	0.439
HCC-44						0.871	0.781	1.1	1.1	1.11					
HCC-78	0.54	0.453	0.481	0.509	0.364	0.451	0.383	0.319	0.354	0.334	0.348	0.361	0.348	0.26	0.215
HCC-366	0.919		0.893	0.953	0.797	0.135		0.149	0.129	0.139	0.611		0.605	0.444	0.174
HCC-827	1.03	0.951	0.999	0.977	0.734	0.424	0.4	0.358	0.389	0.366	0.296	0.234	0.311	0.264	0.288
HOP-62	0.881		1.02	0.958	0.735	0.368		0.344	0.347	0.338	0.704		0.57	0.525	0.463
LC-2-ad	0.909		0.687	0.687	0.481	0.461		0.453	0.428	0.439	0.459		0.541	0.446	0.325
LCLC-97TM1	0.861	0.883	0.854	0.67	0.514	0.218	0.206	0.202	0.216	0.169	0.694	0.572	0.738	0.585	0.329
LCLC-103H	0.782	0.619	0.8	0.522	0.481	0.483	0.385	0.559	0.423	0.357	0.44	0.331	0.452	0.367	0.307

Cell Line	relative viability (Palbociclib + Foretinib; first compound 0.01 µM)	relative viability (Palbociclib + Foretinib; first compound 0.03162 µM)	relative viability (Palbociclib + Foretinib; first compound 0.1 µM)	relative viability (Palbociclib + Foretinib; first compound 0.3162 µM)	relative viability (Palbociclib + Foretinib; first compound 1 µM)	relative viability (Palbociclib + Tozasertib; first compound 0.01 µM)	relative viability (Palbociclib + Tozasertib; first compound 0.03162 µM)	relative viability (Palbociclib + Tozasertib; first compound 0.1 µM)	relative viability (Palbociclib + Tozasertib; first compound 0.3162 µM)	relative viability (Palbociclib + Tozasertib; first compound 1 µM)	relative viability (Palbociclib + Dasatinib; first compound 0.01 µM)	relative viability (Palbociclib + Dasatinib; first compound 0.03162 µM)	relative viability (Palbociclib + Dasatinib; first compound 0.1 µM)	relative viability (Palbociclib + Dasatinib; first compound 0.3162 µM)	relative viability (Palbociclib + Dasatinib; first compound 1 µM)
LK-2	1.12		1.18	1.27	1.05	0.167		0.15	0.196	0.167	0.356		0.305	0.301	0.321
LOU-NH91	0.957	0.86	0.678	0.646	0.533	0.778	0.51	0.541	0.575	0.452	0.66	0.425	0.429	0.434	0.41
LU99A	0.782	0.82	0.765	0.724	0.583	0.314	0.268	0.254	0.308	0.25	0.506	0.428	0.353	0.344	0.379
LXF-289	0.977	0.926	0.955	0.896	0.828	0.175	0.2	0.19	0.233	0.248	0.208	0.0993	0.164	0.148	0.174
NCI-H23	0.954		1.11	0.962	0.69	0.335		0.381	0.378	0.412	0.835		0.8	0.732	0.541
NCI-H322M	0.977	0.776	0.616	0.641	0.414	0.471	0.448	0.403	0.412	0.343	0.278	0.216	0.207	0.209	0.198
NCI-H358	0.718	0.545	0.523	0.412	0.226	0.0961	0.087	0.096	0.0791	0.0679	0.156	0.179	0.101	0.0972	0.0795
NCI-H441	0.75	0.965	0.571	0.701	0.373	0.689	0.739	0.577	0.446	0.373	0.518	0.525	0.522	0.362	0.221
NCI-H460	1.01	0.969	0.886	0.8	0.536	0.33	0.0915	0.563	0.486	0.467	0.459	0.429	0.392	0.314	0.162
NCI-H520	0.837	0.563	0.522	0.551	0.373	0.445	0.424	0.238	0.329	0.249	0.206	0.458	0.142	0.153	0.171
NCI-H522						0.604	0.517	0.573	0.469	0.539	0.896	0.658	0.809	0.922	0.914
NCI-H596	0.996		0.836	0.821	0.953	0.951		1	0.935	0.965	0.606		0.551	0.599	0.613
NCI-H647	1.21	1.17	1.13	1.07	0.964	0.272	0.286	0.266	0.465	0.435	0.177	0.142	0.143	0.163	0.139
NCI-H650	1.05	0.862	0.839	0.824	0.639	0.784	0.378	0.639	0.588	0.576	0.516	0.328	0.355	0.398	0.289
NCI-H661	1.01	0.792	0.695	0.626	0.495	0.332	0.346	0.324	0.302	0.3	0.901	0.793	0.476	0.533	0.435
NCI-H727	0.879	0.727	0.636	0.596	0.5	0.589	0.482	0.52	0.529	0.405	0.342	0.302	0.299	0.242	0.218
NCI-H838	1.03	0.955	0.71	0.823	0.515	0.272	0.248	0.213	0.194	0.204	0.278	0.318	0.213	0.22	0.213
NCI-H1299	1.05	0.996	1.02	0.942	0.754										
NCI-H1355	1.03	0.894	0.902	0.85	0.715	0.613	0.521	0.583	0.556	0.454	0.774	0.587	0.588	0.569	0.384
NCI-H1395	0.867	0.876	0.846	0.828	0.713	0.791	0.709	0.627	0.676	0.635	0.399	0.382	0.345	0.325	0.333
NCI-H1437	1.27	1.16	0.992	0.991	0.783	0.368	0.351	0.287	0.376	0.307	0.382	0.344	0.425	0.34	0.231
NCI-H1563	0.972	0.89	0.821	0.853	0.8						0.456	0.44	0.484	0.471	0.429
NCI-H1650	1.3	0.808	0.954	0.934	0.65	0.48	0.317	0.44	0.337	0.338	0.29	0.287	0.275	0.275	0.208
NCI-H1651	0.882	0.819	0.779	0.747	0.613	0.749	0.603	0.665	0.617	0.685	0.394	0.366	0.352	0.385	0.308
NCI-H1792											0.848	0.727	0.63	0.551	0.468
